The text below walks through data of patent US12528801B2 (Givaudan SA, priority 2019, dated 2026).

The target in the experiment is T1, hTRPM8 (Homo sapiens, UniProt Q7Z2W7).
T1 construct: expressed in transfected cells
In words: Assay on TRPM8 modulators: calcium imaging (Fluo-4, Flexstation) in HEK293 cell line stably expressing hTRPM8. In kind it is cell-based. The settings on record: HEK293 cells stably expressing hTRPM8; calcium influx, Fluo-4, Flexstation 3; sigmoidal dose-response fit. A digest of the protocol:
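HEK293 cells stably expressing hTRPM8 were loaded with Fluo-4 AM plus probenecid and kept in HEPES buffer, pH 7.4. Calcium influx to serially diluted compounds was recorded for 120 s. Maximal activation was referenced to solvent control and 31.6 μM menthol, with EC values from sigmoidal dose-response fits.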

T1 sequence (Q7Z2W7 whole entry): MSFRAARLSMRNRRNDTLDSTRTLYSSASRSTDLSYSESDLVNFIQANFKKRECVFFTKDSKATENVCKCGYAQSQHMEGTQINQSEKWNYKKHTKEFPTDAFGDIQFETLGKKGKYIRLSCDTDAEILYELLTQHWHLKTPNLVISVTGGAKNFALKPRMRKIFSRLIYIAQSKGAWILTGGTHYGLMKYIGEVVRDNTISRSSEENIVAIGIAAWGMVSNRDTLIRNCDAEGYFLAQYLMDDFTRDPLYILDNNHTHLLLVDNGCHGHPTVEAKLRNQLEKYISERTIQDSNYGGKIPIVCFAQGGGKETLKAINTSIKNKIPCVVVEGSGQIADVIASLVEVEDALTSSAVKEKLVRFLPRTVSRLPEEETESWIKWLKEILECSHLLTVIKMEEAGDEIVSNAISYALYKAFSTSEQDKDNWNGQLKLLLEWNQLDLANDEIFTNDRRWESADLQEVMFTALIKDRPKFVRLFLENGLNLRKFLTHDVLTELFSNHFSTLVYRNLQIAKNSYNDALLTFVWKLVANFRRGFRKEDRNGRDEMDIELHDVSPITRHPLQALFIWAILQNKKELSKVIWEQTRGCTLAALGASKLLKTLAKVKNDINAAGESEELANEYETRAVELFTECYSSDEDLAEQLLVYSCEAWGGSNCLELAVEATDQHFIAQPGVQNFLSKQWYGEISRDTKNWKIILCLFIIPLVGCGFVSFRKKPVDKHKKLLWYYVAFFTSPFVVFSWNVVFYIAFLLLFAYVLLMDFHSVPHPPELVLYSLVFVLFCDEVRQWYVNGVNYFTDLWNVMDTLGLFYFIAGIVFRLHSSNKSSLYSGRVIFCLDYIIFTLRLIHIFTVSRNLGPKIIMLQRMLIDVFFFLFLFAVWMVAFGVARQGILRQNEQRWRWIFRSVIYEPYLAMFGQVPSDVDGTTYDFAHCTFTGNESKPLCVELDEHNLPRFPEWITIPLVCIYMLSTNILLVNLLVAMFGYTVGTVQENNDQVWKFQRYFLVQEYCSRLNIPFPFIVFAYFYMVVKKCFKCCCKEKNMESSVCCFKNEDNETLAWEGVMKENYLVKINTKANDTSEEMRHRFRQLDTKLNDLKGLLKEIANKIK

Take `COC(C(=O)N1CCCCC1c1nc(-c2ccccc2)c[nH]1)C1CC1` (centres unmarked) [Compound 152, 2-cyclopropyl-2-methoxy-1-(2-(4-phenyl-1H-imidazol-2-yl)piperidin-1-yl)ethan-1-one]: the EC50 was in the range of 0.3 to 1 µM.
With `CCOC(C)C(=O)N1CCCCC1c1ncc(-c2cccc(F)c2)[nH]1` (centres unmarked) [Compound 153, 2-ethoxy-1-(2-(5-(3-fluorophenyl)-1H-imidazol-2-yl)piperidin-1-yl)propan-1-one], the EC50 was 1 to 35 µM.
The figure for `CC=C(CC)C(=O)N1CCCCC1c1nc(-c2ccccc2)c[nH]1` (centres unmarked) [Compound 154, 2-ethyl-1-(2-(4-phenyl-1H-imidazol-2-yl)piperidin-1-yl)but-2-en-1-one] is 0.05 to 0.3 µM; for `CCC(CC)C(=O)N1CCCCC1c1nc(-c2ccccc2)c[nH]1` (centres unmarked) [Compound 155, 2-ethyl-1-(2-(4-phenyl-1H-imidazol-2-yl)piperidin-1-yl)butan-1-one] it is 0.05 to 0.3 µM.
As for `CSC(C)C(=O)N1CCCCC1c1ncc(-c2ccc(C#N)c(F)c2)[nH]1` (centres unmarked) [Compound 156, 2-fluoro-4-(2-(1-(2-(methylthio)propanoyl)piperidin-2-yl)-1H-imidazol-5-yl)benzonitrile], the EC50 is less than 0.05 µM.
Under `Cc1ccc(-c2cnc(C3CCCCN3C(=O)C(C)S)[nH]2)cc1` (centres unmarked) [Compound 157, 2-mercapto-1-(2-(5-(p-tolyl)-1H-imidazol-2-yl)piperidin-1-yl)propan-1-one] stands 0.05 to 0.3 µM.
As for `CCC(OC)C(=O)N1CCCCC1c1nc(-c2ccccc2)c[nH]1` (centres unmarked) [Compound 158, 2-methoxy-1-(2-(4-phenyl-1H-imidazol-2-yl)piperidin-1-yl)butan-1-one], the EC50 lay in the range of 0.3 to 1 µM.
Under `COC(C)C(=O)N1CCCCC1c1nc(-c2ccccc2)c[nH]1` (centres unmarked) [Compound 159, 2-methoxy-1-(2-(4-phenyl-1H-imidazol-2-yl)piperidin-1-yl)propan-1-one] stands 1 to 35 µM; under `COC(C)C(=O)N1CCCCC1c1ncc(-c2ccc(C)cc2)[nH]1` (centres unmarked) [Compound 160, 2-methoxy-1-(2-(5-(p-tolyl)-1H-imidazol-2-yl)piperidin-1-yl)propan-1-one], 0.05 to 0.3 µM.
The figure for `CCC(C)C(=O)N1CCCCC1c1nc(-c2ccccc2)c[nH]1` (centres unmarked) [Compound 161, 2-methyl-1-(2-(4-phenyl-1H-imidazol-2-yl)piperidin-1-yl)butan-1-one] is 0.05 to 0.3 µM; for `CC(C)C(=O)N1CCCCC1c1nc(-c2ccccc2)c[nH]1` (centres unmarked) [Compound 162, 2-methyl-1-(2-(4-phenyl-1H-imidazol-2-yl)piperidin-1-yl)propan-1-one] it is 0.3 to 1 µM.
The figure for `CC[C@H](C)C(=O)N1CCCC[C@@H]1c1ncc(-c2ccc(C)cc2)[nH]1` [Compound 165, (S)-2-methyl-1-((R)-2-(5-(p-tolyl)-1H-imidazol-2-yl)piperidin-1-yl)butan-1-one] is less than 0.05 µM.
Take `CC(=O)C(C)C(=O)N1CCCCC1c1ncc(-c2ccc(C)cc2)[nH]1` (centres unmarked) [Compound 167, 2-methyl-1-(2-(5-(p-toly)-1H-imidazol-2-yl)piperidin-1-yl)butane-1,3-dione]: the EC50 lay in the range of 0.05 to 0.3 µM.
Under `CCCC(C)C(=O)N1CCCCC1c1ncc(-c2ccc(C)cc2)[nH]1` (centres unmarked) [Compound 168, 2-methyl-1-(2-(5-(p-tolyl)-1H-imidazol-2-yl)piperidin-1-yl)pentan-1-one] stands less than 0.05 µM; under `C=C(C)C(=O)N1CCCCC1c1ncc(-c2ccc(C)cc2)[nH]1` (centres unmarked) [Compound 169, 2-methyl-1-(2-(5-(p-tolyl)-1H-imidazol-2-yl)piperidin-1-yl)prop-2-en-1-one], less than 0.05 µM; under `Cc1ccc(-c2cnc(C3CCCCN3C(=O)C(C)C)[nH]2)cc1` (centres unmarked) [Compound 170, 2-methyl-1-(2-(5-(p-tolyl)-1H-imidazol-2-yl)piperidin-1-yl)propan-1-one], less than 0.05 µM.
Under `CSC(C)(C)C(=O)N1CCCCC1c1ncc(-c2ccc(C)cc2)[nH]1` (centres unmarked) [Compound 171, 2-methyl-2-(methylthio)-1-(2-(5-(p-tolyl)-1H-imidazol-2-yl)piperidin-1-yl)propan-1-one] stands less than 0.05 µM; under `CSCC(C)C(=O)N1CCCCC1c1nc(-c2ccccc2)c[nH]1` (centres unmarked) [Compound 172], 0.3 to 1 µM; under `C=C(CC)C(=O)N1CCCCC1c1ncc(-c2ccc(C)cc2)[nH]1` (centres unmarked) [Compound 173, 2-methylene-1-(2-(5-(p-toly)-1H-imidazol-2-yl)piperidin-1-yl)butan-1-one], less than 0.05 µM.
The figure for `CSC(C)C(=O)N1CCCCC1c1nc(-c2cccc(C#N)c2)c[nH]1` (centres unmarked) [Compound 174, 3-(2-(1-(2-(methylthio)propanoyl)piperidin-2-yl)-1H-imidazol-4-yl)benzonitrile] is 0.05 to 0.3 µM; for `CC(C(=O)N1CCCCC1c1nc(-c2ccccc2)c[nH]1)C(F)(F)F` (centres unmarked) [Compound 175, 3,3,3-trifluoro-2-methyl-1-(2-(4-phenyl-1H-imidazol-2-yl)piperidin-1-yl)propan-1-one] it is 0.05 to 0.3 µM; for `O=C(CC(F)(F)C(F)(F)F)N1CCCCC1c1nc(-c2ccccc2)c[nH]1` (centres unmarked) [Compound 176, 3,3,4,4,4-pentafluoro-1-(2-(4-phenyl-1H-imidazol-2-yl)piperidin-1-yl)butan-1-one] it is 1 to 35 µM.
For `CC(F)(F)CC(=O)N1CCCCC1c1nc(-c2ccccc2)c[nH]1` (centres unmarked) [Compound 177, 3,3-difluoro-1-(2-(4-phenyl-1H-imidazol-2-yl)piperidin-1-yl)butan-1-one], the EC50 lay within 1 to 35 µM.
For `CSC(C)C(=O)N1CCCCC1c1ncc(-c2ccc(C#N)cc2F)[nH]1` (centres unmarked) [Compound 178, 3-fluoro-4-(2-(1-(2-(methylthio)propanoyl)piperidin-2-yl)-1H-imidazol-5-yl)benzonitrile], the EC50 is less than 0.05 µM.
The figure for `CC(C)=CC(=O)N1CCCCC1c1nc(-c2ccccc2)c[nH]1` (centres unmarked) [Compound 179, 3-methyl-1-(2-(4-phenyl-1H-imidazol-2-yl)piperidin-1-yl)but-2-en-1-one] is 1 to 35 µM.
Under `CC(C)CC(=O)N1CCCCC1c1nc(-c2ccccc2)c[nH]1` (centres unmarked) [Compound 180, 3-methyl-1-(2-(4-phenyl-1H-imidazol-2-yl)piperidin-1-yl)butan-1-one] stands 1 to 35 µM; under `CSC(C)C(=O)N1CCCCC1c1nc(-c2ccc(C#N)cc2)c[nH]1` (centres unmarked) [Compound 181, 4-(2-(1-(2-(methylthio)propanoyl)piperidin-2-yl)-1H-imidazol-4-yl)benzonitrile], less than 0.05 µM; under `CSC(C)C(=O)N1CCCCC1c1ncc(-c2ccc(C=O)cc2)[nH]1` (centres unmarked) [Compound 182, 4-(2-(1-(2-(methylthio)propanoyl)piperidin-2-yl)-1H-imidazol-5-yl)benzaldehyde], less than 0.05 µM.
Turning to `CC(CC(F)(F)F)C(=O)N1CCCCC1c1nc(-c2ccccc2)c[nH]1` (centres unmarked) [Compound 183, 4,4,4-trifluoro-2-methyl-1-(2-(4-phenyl-1H-imidazol-2-yl)piperidin-1-yl)butan-1-one], the EC50 lay within 0.3 to 1 µM.
The figure for `O=C(N1CCCCC1c1nc(-c2ccccc2)c[nH]1)C12CC(C1)C2` (centres unmarked) [Compound 184, bicyclo[1.1.1]pentan-1-yl(2-(4-phenyl-1H-imidazol-2-yl)piperidin-1-yl)methanone] is 0.3 to 1 µM; for `O=C(C1CCC1)N1CCCCC1c1ncc(-c2cccc(F)c2)[nH]1` (centres unmarked) [Compound 185, cyclobutyl(2-(5-(3-fluorophenyl)-1H-imidazol-2-yl)piperdin-1-yl)methanone] it is 0.3 to 1 µM; for `O=C(C1CCCC1)N1CCCCC1c1nc(-c2ccccc2)c[nH]1` (centres unmarked) [Compound 186, cyclopentyl(2-(4-phenyl-1H-imidazol-2-yl)piperidin-1-yl)methanone] it is 0.3 to 1 µM.
Consider `O=C(C1CC1)N1CCCCC1c1nc(-c2ccccc2)c[nH]1` (centres unmarked) [Compound 187, cyclopropyl(2-(4-phenyl-1H-imidazol-2-yl)piperidin-1-yl)methanone], for which the EC50 lay in the range of 1 to 35 µM.
Take `COC(=O)c1ccc(-c2cnc(C3CCCCN3C(=O)C(C)SC)[nH]2)cc1` (centres unmarked) [Compound 188, methyl 4-(2-(1-(2-(methylthio)propanoyl)piperidin-2-yl)-1H-imidazol-5-yl)benzoate]: the EC50 was 0.05 to 0.3 µM.
`CSC(C)C(=O)N1CCCCC1c1nc(-c2ccc(S(=O)(=O)NCCO)cc2)c[nH]1` (centres unmarked) [Compound 189, N-(2-hydroxyethyl)-4-(2-(1-(2-(methylthio)propanoyl)piperidin-2-yl)-1H-imidazol-4-yl)benzenesulfonamide]: the EC50 lay within 1 to 35 µM.
Under `CSC(C)C(=O)N1CCCCC1c1ncc(-c2cccc([N+](=O)[O-])c2)[nH]1` (centres unmarked) [Compound 190, 2-(methylthio)-1-(2-(5-(3-nitrophenyl)-1H-imidazol-2-yl)piperidin-1-yl)propan-1-one] stands less than 0.05 µM; under `CSC(C)C(=O)N1CCCCC1c1nc(-c2ccc(NS(C)(=O)=O)cc2)c[nH]1` (centres unmarked) [Compound 191, N-(4-(2-(1-(2-(methylthio)propanoyl)piperidin-2-yl)-1H-imidazol-4-yl)phenyl)methanesulfonamide], 1 to 35 µM.
As for `CSC(C)C(=O)N1CCCCC1c1ncc(-c2ccc([N+](=O)[O-])cc2)[nH]1` (centres unmarked) [Compound 192, 2-(methylthio)-1-(2-(5-(4-nitrophenyl)-1H-imidazol-2-yl)piperidin-1-yl)propan-1-one], the EC50 is less than 0.05 µM.
The figure for `Cc1ccc(-c2cnc(C3CCCCN3C(=O)C3CC3(C)C)[nH]2)cc1` (centres unmarked) [Compound 193, (2,2-dimethylcyclopropyl)(2-(5-(p-toly)-1H-imidazol-2-yl)piperidin-1-yl)methanone] is less than 0.05 µM.
In the case of `CCC(C)C(=O)N1CCCCC1c1ncc(Br)[nH]1` (centres unmarked) [Compound 194, 1-(2-(5-bromo-1H-imidazol-2-yl)piperidin-1-yl)-2-methylbutan-1-one], the concentration giving a half-maximal response (EC50) lay in the range of 1 to 35 µM.
In the case of `CCC(C)C(=O)N1CCCCC1c1ncc(-c2ccc(Cl)cc2)[nH]1` (centres unmarked) [Compound 195, 1-(2-(5-(4-chlorophenyl)-1H-imidazol-2-yl)piperidin-1-yl)-2-methylbutan-1-one], the EC50 was less than 0.05 µM.
